Assay results taken from patent publication US20230107642A1 (Erasca, Inc., priority 2020, published 2023).

Biological target: T1, Cys12 of the KRAS 4B G12C protein (Homo sapiens, UniProt P01116, G12C)
T1 construct: This protein contained 188 amino acids in total, including an N-terminal 6-Histidine tag; made in house; host or cells: E. coli BL21
Assay: In vitro covalent adduct formation (CAF) assay, LC-MS intact mass
Assay type: binding
Details: 10 uM compound, 60 min
How it was run: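 GDP-loaded (>95%) His-TEV-tagged KRAS 4B G12C (residues 1–169), 5 μM in TBS pH 7.4, incubated with 10 μM compound (4% DMSO) at 22° C for one hour. Intact-protein LC-MS gave free:adduct ratios, reported as percent protein modified; duplicate runs.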

% CAF 10 uM @ 60 min [%] | Structure (SMILES)
88.6 | [2H]C([2H])=C([2H])C(=O)N1[C@H](C)CN(c2nc(=O)n3c4c(c(-c5ccc(F)cc5F)c(C(F)(F)F)cc24)SC[C@@H]3COC)C[C@@H]1C (atropisomer, axis not shown) [Example 1405, (3S,10R)-7-((3S,5R)-4-(acryloyl-d3)-3,5-dimethylpiperazin-1-yl)-10-(2,4-difluorophenyl)-3-(methoxymethyl)-9-(trifluoromethyl)-2,3-dihydro-5H-[1,4]thiazino[2,3,4-ij]quinazolin-5-one]
0 | C=CC(=O)N1[C@H](C)CN(c2nc(=O)n3c4c(c(-c5cccc6cnn(C)c56)c(C(F)(F)F)cc24)SC[C@@H]3CN2CCN(C3CC3)CC2)C[C@@H]1C (atropisomer, axis not shown) [Example 1411, (3S,10R)-7-((3S,5R)-4-acryloyl-3,5-dimethylpiperazin-1-yl)-3-((4-cyclopropylpiperazin-1-yl)methyl)-10-(1-methyl-1H-indazol-7-yl)-9-(trifluoromethyl)-2,3-dihydro-5H-[1,4]thiazino[2,3,4-ij]quinazolin-5-one]
85.4 | C=CC(=O)N1[C@H](C)CN(c2nc(=O)n3c4c(c(-c5cccc6cnn(C)c56)c(C(F)(F)F)cc24)SC[C@@H]3CN2CCN(C3CC3)CC2)C[C@@H]1C (atropisomer, axis not shown) [Example 1412, (3S,10S)-7-((3S,5R)-4-acryloyl-3,5-dimethylpiperazin-1-yl)-3-((4-cyclopropylpiperazin-1-yl)methyl)-10-(1-methyl-1H-indazol-7-yl)-9-(trifluoromethyl)-2,3-dihydro-5H-[1,4]thiazino[2,3,4-ij]quinazolin-5-one]
93 | C=CC(=O)N1[C@H](C)CN(c2nc(=O)n3c4c(c(-c5cc(Cl)c(F)cc5F)c(C(F)(F)F)cc24)SCC(COC)(COC)C3)C[C@@H]1C (atropisomer, axis not shown) [Example 1420, (S)-8-((3S,5R)-4-acryloyl-3,5-dimethylpiperazin-1yl)-11-(5-chloro-2,4-difluorophenyl)-3,3-bis(methoxymethyl)-10-(trifluoromethyl)-3,4-dihydro-2H,6H-[1,4]thiazepino[2,3,4-ij]quinazolin-6-one]
91 | C=CC(=O)N1[C@H](C)CN(c2nc(=O)n3c4c(c(-c5cc(Cl)c(F)cc5F)c(C(F)(F)F)cc24)SCC(COC)(COC)C3)C[C@@H]1C (atropisomer, axis not shown) [Example 1421, (R)-8-((3S,5R)-4-acryloyl-3,5-dimethylpiperazin-1-yl)-11-(5-chloro-2,4-difluorophenyl)-3,3-bis(methoxymethyl)-10-(trifluoromethyl)-3,4-dihydro-2H,6H-[1,4]thiazepino[2,3,4-ij]quinazolin-6-one]
95.1 | [2H]C([2H])([2H])OC[C@H]1CSc2c(-c3ccc(F)cc3F)c(C(F)(F)F)cc3c(N4C[C@@H](C)N(C(=O)C=C)[C@@H](C)C4)nc(=O)n1c23 (atropisomer, axis not shown) [Example 1423, (3S,10R)-7-((3S,5R)-4-acryloyl-3,5-dimethylpiperazin-1-yl)-10-(2,4-difluorophenyl)-3-((methoxy-d3)methyl)-9-(trifluoromethyl)-2,3-dihydro-5H-[1,4]thiazino[2,3,4-ij]quinazolin-5-one]
95.4 | [2H]C([2H])([2H])OC[C@H]1CSc2c(-c3ccc(F)cc3F)c(C(F)(F)F)cc3c(N4C[C@@H](C)N(C(=O)C=C)[C@@H](C)C4)nc(=O)n1c23 (atropisomer, axis not shown) [Example 1424, (3S,10S)-7-((3S,5R)-4-acryloyl-3,5-dimethylpiperazin-1-yl)-10-(2,4-difluorophenyl)-3-((methoxy-d3)methyl)-9-(trifluoromethyl)-2,3-dihydro-5H-[1,4]thiazino[2,3,4-ij]quinazolin-5-one]
72 | C=CC(=O)N1[C@H](C)CN(c2nc(=O)n3c4c(c(-c5ccc(F)cc5F)c(C(F)(F)F)cc24)SC[C@@H]3CN2CC[C@H](F)C2)C[C@@H]1C (atropisomer, axis not shown) [Example 1428, (3S,10S)-7-((3S,5R)-4-acryloyl-3,5-dimethylpiperazin-1-yl)-10-(2,4-difluorophenyl)-3-(((S)-3-fluoropyrrolidin-1-yl)methyl)-9-(trifluoromethyl)-2,3-dihydro-5H-[1,4]thiazino[2,3,4-ij]quinazolin-5-one]
79 | C=CC(=O)N1[C@H](C)CN(c2nc(=O)n3c4c(c(-c5ccc(F)cc5F)c(C(F)(F)F)cc24)SC[C@@H]3CN2CC[C@H](F)C2)C[C@@H]1C (atropisomer, axis not shown) [Example 1429, (3S,10R)-7-((3S,5R)-4-acryloyl-3,5-dimethylpiperazin-1-yl)-10-(2,4-difluorophenyl)-3-(((S)-3-fluoropyrrolidin-1-yl)methyl)-9-(trifluoromethyl)-2,3-dihydro-5H-[1,4]thiazino[2,3,4-ij]quinazolin-5-one]
54 | C=CC(=O)N1[C@H](C)CN(c2nc(=O)n3c4c(c(-c5cc(Cl)c(F)cc5F)c(C(F)(F)F)cc24)SC[C@@H]3CN2CC[C@H](F)C2)C[C@@H]1C (atropisomer, axis not shown) [Example 1438, (3S,10S)-7-((3S,5R)-4-acryloyl-3,5-dimethylpiperazin-1-yl)-10-(5-chloro-2,4-difluorophenyl)-3-(((S)-3-fluoropyrrolidin-1-yl)methyl)-9-(trifluoromethyl)-2,3-dihydro-5H-[1,4]thiazino[2,3,4-ij]quinazolin-5-one]
73 | C=CC(=O)N1[C@H](C)CN(c2nc(=O)n3c4c(c(-c5cc(Cl)c(F)cc5F)c(C(F)(F)F)cc24)SC[C@@H]3CN2CC[C@H](F)C2)C[C@@H]1C (atropisomer, axis not shown) [Example 1439, (3S,10R)-7-((3S,5R)-4-acryloyl-3,5-dimethylpiperazin-1-yl)-10-(5-chloro-2,4-difluorophenyl)-3-(((S)-3-fluoropyrrolidin-1-yl)methyl)-9-(trifluoromethyl)-2,3-dihydro-5H-[1,4]thiazino[2,3,4-ij]quinazolin-5-one]

The remaining lines, values behind:

Structure (SMILES) | % CAF 10 uM @ 60 min [%]
C=CC(=O)N1CCN(c2nc(=O)n3c4c(c(-c5cc(Cl)c(F)cc5F)c(C(F)(F)F)cc24)SCC2(COC2)C3)CC1 (atropisomer, axis not shown) [Example 1396, (R)-8′-(4-acryloylpiperazin-1-yl)-11′-(5-chloro-2,4-difluorophenyl)-10′-(trifluoromethyl)-2′H,4′H,6′H-spiro[oxetane-3,3′-[1,4]thiazepino[2,3-4-ij]quinazolin-6′-one] | 95.1
C=CC(=O)N1CCN(c2nc(=O)n3c4c(c(-c5cc(Cl)c(F)cc5F)c(C(F)(F)F)cc24)SCC2(COC2)C3)CC1 (atropisomer, axis not shown) [Example 1397, (S)-8′-(4-acryloylpiperazin-1-yl)-11′-(5-chloro-2,4-difluorophenyl)-10′-(trifluoromethyl)-2′H,4′H,6′H-spiro[oxetane-3,3′-[1,4]thiazepino[2,3,4-ij]quinazolin]-6′-one] | 78.2
[2H]C([2H])=C([2H])C(=O)N1[C@H](C)CN(c2nc(=O)n3c4c(c(-c5ccc(F)cc5F)c(C(F)(F)F)cc24)SC[C@@H]3COC)C[C@@H]1C (atropisomer, axis not shown) [Example 1404, (3S,10S)-7-((3S,5R)-4-(acryloyl-d3)-3,5-dimethylpiperazin-1-yl)-10-(2,4-difluorophenyl)-3-(methoxymethyl)-9-(trifluoromethyl)-2,3-dihydro-5H-[1,4]thiazino[2,3,4-ij]quinazolin-5-one] | 80.9
C=CC(=O)N1[C@H](C)CN(c2nc(=O)n3c4c(c(-c5c(F)ccc6cnn(C)c56)c(C(F)(F)F)cc24)SC[C@@H]3COC)C[C@@H]1C (atropisomer, axis not shown) [Example 1406, (3S,10R)-7-((3S,5R)-4-acryloyl-3,5-dimethylpiperazin-1-yl)-10-(6-fluoro-1-methyl-1H-indazol-7-yl)-3-(methoxymethyl)-9-(trifluoromethyl)-2,3-dihydro-5H-[1,4]thiazino[2,3,4-ij]quinazolin-5-one] | 75.9
C=CC(=O)N1CCN(c2nc(=O)n3c4c(c(-c5c(F)ccc6cnn(C)c56)c(C(F)(F)F)cc24)SC[C@@H]3COC)CC1 (atropisomer, axis not shown) [Example 1416, (3S,10R)-7-(4-acryloylpiperazin-1-yl)-10-(6-fluoro-1-methyl-1H-indazol-7-yl)-3-(methoxymethyl)-9-(trifluoromethyl)-2,3-dihydro-5H-[1,4]thiazino[2,3,4-ij]quinazolin-5-one] | 71.3
[2H]C([2H])=C([2H])C(=O)N1C[C@H](C)N(c2nc(=O)n3c4c(c(-c5cc(Cl)c(F)cc5F)c(C(F)(F)F)cc24)SCC2(COC2)C3)C[C@H]1C (atropisomer, axis not shown) [Example 1433, (S)-8′-((2S,5R)-4-(Acryloyl-d3)-2,5-dimethylpiperazin-1-yl)-11′-(5-chloro-2,4-difluorophenyl)-10′-(trifluoromethyl)-2′H,4′H,6′H-spiro[oxetane-3,3′-[1,4]thiazepino[2,3,4-ij]quinazolin]-6′-one] | 70
[2H]C([2H])=C([2H])C(=O)N1C[C@H](C)N(c2nc(=O)n3c4c(c(-c5cc(Cl)c(F)cc5F)c(C(F)(F)F)cc24)SCC2(COC2)C3)C[C@H]1C (atropisomer, axis not shown) [Example 1434, (R)-8′-((2S,5R)-4-(Acryloyl-d3)-2,5-dimethylpiperazin-1-yl)-11′-(5-chloro-2,4-difluorophenyl)-10′-(trifluoromethyl)-2′H,4′H,6′H-spiro[oxetane-3,3′-[1,4]thiazepino[2,3,4-ij]quinazolin]-6′-one] | 82
